The structures appear in SMILES notation. Where two headings read alike, the source gives them in different places.

One assay relates to MCF-7 cells. The assay is described as follows: Tumor cell proliferation assay, uninfected MCF-7 cells. The format is cell-based, human. The following applies: for IC50: uninfected MCF-7; for Ratio (1)/(2) MCF-7: IC50 in the absence of TPi to IC50 in the presence of TPi.
The test system of assay [1] is MCF-7/HYOR cells. The assay is described as follows: Tumor cell proliferation assay, M. hyorhinis-infected MCF-7 cells. Format: cell-based, human. The following applies: for Ratio (1)/(2) MCF-7/HYOR: IC50 in the absence of TPi to IC50 in the presence of TPi. Here is the method: Mycoplasma hyorhinis (ATCC 17981) was obtained from the American Type Culture Collection (ATCC, Manassas, Va.). The freeze-dried bacteria were reconstituted by adding 1 ml of DMEM. […] The co-culture of MCF-7 cells and M. hyorhinis was maintained under the same conditions as the uninfected MCF-7 cells. […] The cells were incubated for another 4 days, trypsinized and counted by a Coulter counter (Analis, Suarlée, Belgium).

In a further assay the test system is MCF-7/HYOR cell cultures. The assay is described as follows: Nucleoside metabolism experiments, distribution of drug-derived radiolabel in MCF-7/HYOR cell cultures. Format: cell-based, human. The following applies: MCF-7/HYOR; for % of drug-derived radiolabel, In medium, Base / % of drug-derived radiolabel, In medium, Nucleoside / % of drug-derived radiolabel, In the cytosol of the cells, 5′-diphosphate / % of drug-derived radiolabel, In the cytosol of the cells, 5′-monophosphate / % of drug-derived radiolabel, In the cytosol of the cells, 5′-triphosphate / % of drug-derived radiolabel, In the cytosol of the cells, Nucleoside/nucleobase / % of drug-derived radiolabel, Incorporatio into DNA/RNA: 1 μCi, 16 h; for Increase of 5′-monophosphate levels in the presence of TPi: with versus without TPi.

Assay [2] has as its system MCF-7/HYOR cells. The assay is described as follows: Nucleotide incorporation assay, MCF-7/HYOR compared with MCF-7 cells. The format is cell-based, human. The following applies: 1 μCi radiolabeled compound; FIG. 4. Here is the method:
MCF-7 and MCF-7/HYOR cells were seeded at 10,000 cells/cm. After 48 hours, cells were treated with 1 μCi of ^3H-labeled nucleoside with or without 10 μM TPi. 16 h later, the medium was removed and the cells were washed twice with PBS. Next, the cells were trypsinized, transferred to Eppendorf tubes and centrifuged for 10 minutes at 1,400 rpm. The pellet was resuspended in 1 ml absolute ice-cold methanol and kept on ice for 20 minutes. After centrifugation for 20 minutes at 13,000 rpm the pellet was washed twice with methanol, resuspended in methanol and transferred to scintillation vials containing 9 ml of Ready safe liquid scintillation reagent (‘Hisafe 3’, Perkin Elmer, Waltham, Mass.). The radioactivity was measured by a Liquid scintillation analyzer (2300 TR, Packard, Canberra, Australia).

The nature of assay [3]: Conversion of nucleosides in the medium of uninfected MCF-7 cells. The format is biochemical, human. The following applies: even after 24 hours of incubation; data not shown. Here is the method: The TP activity of M. hyorhinis and the conversion of dThd, FdUrd, 5′DFUR and TFT to thymine, 5FU, 5FU or TF-thymine respectively were measured by high-pressure liquid chromatography (HPLC) analysis. MCF-7 and MCF-7/HYOR cells were seeded at a density of 20,000 cells/cm^2 in DMEM with 10% FBS. Four days later, the medium was collected and cleared by centrifugation at 1,400 rpm. For some experiments, the medium of MCF-7/HYOR cells was filtered using a 0.1 μm micro filter (Acrodisc syringe filter, PALL Corporation, East Hills, N.Y.) to remove the mycoplasmas from the medium. 600 μl of the medium was incubated with 200 μM of substrate (dThd, 5′DFUR, TFT or FdUrd) at 37° C. in the presence or absence of 10 μM TPi. […] Next, the samples were rapidly cooled on ice, exposed for 20 min to 200 μl ice-cold methanol and cleared by centrifugation at 15,000 rpm for 15 minutes. As a positive control, an enzyme activity assay with E. coli TP (Sigma) was performed. For this reaction, 0.025 U of TP were incubated with 200 μM of substrate in TP-buffer (10 mM Tris-HCl, pH 7.6, 1 mM EDTA, 2 mM potassium phosphate and 150 mM NaCl) in a total volume of 600 μl. Aliquots of 100 μl were withdrawn from the reaction mixture at several time points and treated as described above. The nucleosides were separated from their nucleobases on a reversed-phase RP-8 column (Merck, Darmstadt, Germany) and quantified by HPLC analysis (Aliance 2690, Waters, Milford, Mass.). The separation was performed by a linear gradient from 100% buffer B (50 mM NaH2PO4 and 5 mM heptane sulfonic acid, pH 3.2), to 20% buffer B and 80% acetonitrile. […] UV-based detection of all nucleosides was performed at 267 nm.

`O=c1[nH]c(=O)n([C@H]2C[C@H](O)[C@@H](CO)O2)cc1F` [FdUrd, 5-fluoro-2′-deoxyuridine]: the IC50 in the assay with MCF-7 cells (Homo sapiens, MCF7, 96 h, no TPi, 4 days, read-out: IC50 MCF-7 As such) is 3 ± 2 nM. Also, in the assay with MCF-7 cells (Homo sapiens, MCF7, with 10 μM TPi, read-out: IC50 MCF-7 +TPi (10 μM)), the IC50 turned out to be 3 ± 2 nM. Further, the “Ratio (1)/(2) MCF-7” value in the assay with MCF-7 cells worked out at 1.0. In addition, the IC50 in the assay on MCF-7/HYOR cells [1] (Homo sapiens, MCF7, read-out: IC50 MCF-7/HYOR +TPi (10 μM)) turned out to be 3 ± 1 nM. Moreover, the IC50 with MCF-7/HYOR cells [1] (Homo sapiens, MCF7, read-out: IC50 MCF-7/HYOR As such) was 420 ± 180 nM. In addition, the IC50 in the assay with MCF-7/HYOR cells [1] (Homo sapiens, MCF7, plasmocin 25 μg/ml, 1 day pretreatment, read-out: IC50 MCF-7/HYOR +plasmocin (25 μg/ml) 1 day prior to addition of test compounds) amounted to 18 ± 2.2 nM. Moreover, the IC50 in the assay on MCF-7/HYOR cells [1] (Homo sapiens, MCF7, plasmocin 25 μg/ml, 3 days pretreatment, read-out: IC50 MCF-7/HYOR +plasmocin (25 μg/ml) 3 days prior to addition of test compounds) amounted to 3 ± 1 nM. Besides, in the assay with MCF-7/HYOR cells [1], the “Ratio (1)/(2) MCF-7/HYOR” value came to 140. Further, in the assay with MCF-7/HYOR cell cultures, the “% of drug-derived radiolabel, In medium, Base” value came out at 49.5%; the “% of drug-derived radiolabel, In medium, Nucleoside” value stood at 33.2%; the “% of drug-derived radiolabel, In the cytosol of the cells, 5′-diphosphate” value is 0.9%; the “% of drug-derived radiolabel, In the cytosol of the cells, 5′-monophosphate” value is given as 3.5%. In addition, in the assay with MCF-7/HYOR cell cultures, the “% of drug-derived radiolabel, In the cytosol of the cells, 5′-triphosphate” value was determined as 0.3%; the “% of drug-derived radiolabel, In the cytosol of the cells, Nucleoside/nucleobase” value came to 11.6%; the “% of drug-derived radiolabel, Incorporatio into DNA/RNA” value is 1.0%; the “Share incorporated into the nucleic acids in the presence of TPi” value is listed as “almost no”. For the same molecule, the “Increase of 5′-monophosphate levels in the presence of TPi” value in the assay with MCF-7/HYOR cell cultures is on record as 18 fold. The “Incorporation into nucleic acids, infected versus uninfected MCF-7 cells (in words)” value in the assay with MCF-7/HYOR cells [2] was “did not affect”. Also, the “Conversion in the medium of uninfected MCF-7 cells” value in assay [3] is given as “no conversion”.
On to `O=c1[nH]c(=O)n([C@H]2C[C@H](O)[C@@H](CO)O2)cc1C(F)(F)F` [TFT, 5-trifluorothymidine], for which, in the assay on MCF-7 cells, the “Ratio (1)/(2) MCF-7” value is listed as 1.8. Besides, the IC50 with MCF-7 cells (no TPi, 4 days, read-out: IC50 MCF-7 As such) worked out at 390 ± 120 nM. In addition, the IC50 in the assay with MCF-7 cells (with 10 μM TPi, read-out: IC50 MCF-7 +TPi (10 μM)) stood at 210 ± 110 nM. Also, the “Ratio (1)/(2) MCF-7/HYOR” value with MCF-7/HYOR cells [1] was determined as 33. The IC50 in the assay with MCF-7/HYOR cells [1] (M. hyorhinis-infected MCF-7, no TPi, no plasmocin, read-out: IC50 MCF-7/HYOR As such) is 6000 ± 3190 nM. In the assay on MCF-7/HYOR cells [1] (M. hyorhinis-infected MCF-7, with 10 μM TPi, read-out: IC50 MCF-7/HYOR +TPi (10 μM)), the IC50 was 180 ± 70 nM. In the assay with MCF-7/HYOR cells [1] (plasmocin 25 μg/ml, 1 day pretreatment, read-out: IC50 MCF-7/HYOR +plasmocin (25 μg/ml) 1 day prior to addition of test compounds), the IC50 was determined as 450 ± 90 nM. Also, the IC50 with MCF-7/HYOR cells [1] (plasmocin 25 μg/ml, 3 days pretreatment, read-out: IC50 MCF-7/HYOR +plasmocin (25 μg/ml) 3 days prior to addition of test compounds) is 190 ± 60 nM. In addition, in the assay with MCF-7/HYOR cell cultures, the “% of drug-derived radiolabel, In medium, Base” value is given as 56.7%; the “% of drug-derived radiolabel, In medium, Nucleoside” value came to 23.3%; the “% of drug-derived radiolabel, In the cytosol of the cells, 5′-diphosphate” value is listed as 0.6%; the “% of drug-derived radiolabel, In the cytosol of the cells, 5′-monophosphate” value is 6.1%. Moreover, in the assay with MCF-7/HYOR cell cultures, the “% of drug-derived radiolabel, In the cytosol of the cells, 5′-triphosphate” value turned out to be 0.6%; the “% of drug-derived radiolabel, In the cytosol of the cells, Nucleoside/nucleobase” value is recorded as 11.0%; the “% of drug-derived radiolabel, Incorporatio into DNA/RNA” value was determined as 1.8%; the “Share incorporated into the nucleic acids in the presence of TPi” value is on record as 66%. The “Increase of 5′-monophosphate levels in the presence of TPi” value in the assay on MCF-7/HYOR cell cultures is 2.7 fold. In addition, the “Reduction of incorporation into nucleic acids in infected MCF-7/HYOR cells in comparison with uninfected MCF-7 cells” value with MCF-7/HYOR cells [2] amounted to 40 fold. The “Conversion in the medium of uninfected MCF-7 cells” value in assay [3] is “no conversion”.
